{"source": "patent US10144706B2", "about": "(BRISTOL-MYERS SQUIBB COMPANY, priority 2016, dated 2018)", "molecular_target": "T1, PD-1/PD-L1 interaction (PD-1-Ig / PD-L1-His) (Homo sapiens, UniProt Q9NZQ7)", "T1 construct": "hPDL1(18-239)-TVMV-His; TVMV protease site linker (C); made in house; host or cells: HEK293T", "T1 sequence (Q9NZQ7 with tags, fused parts or gaps)": "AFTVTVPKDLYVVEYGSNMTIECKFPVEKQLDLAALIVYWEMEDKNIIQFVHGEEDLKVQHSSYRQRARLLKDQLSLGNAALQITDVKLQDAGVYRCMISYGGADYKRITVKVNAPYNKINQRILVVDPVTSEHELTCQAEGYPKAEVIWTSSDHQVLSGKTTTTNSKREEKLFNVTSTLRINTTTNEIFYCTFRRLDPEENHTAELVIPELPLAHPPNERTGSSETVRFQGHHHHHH", "experiment": "PD-1/PD-L1 Homogenous Time-Resolved Fluorescence (HTRF) binding assay", "conditions": "PD-L1-His 10 nM, PD-1-Ig 20 nM, read-out: Range or IC50", "how_it_was_run": "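HTRF detection used 1 nM europium-cryptate anti-Ig and 20 nM APC anti-His. Compounds first saw 10 nM PD-L1-His for 15 min, and 20 nM PD-1-Ig was then added for another 15 min. Buffer was dPBS plus 0.1% BSA and 0.05% Tween-20. All concentrations are final.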", "note": "Like-named read-outs stand apart in the source and are kept apart here."}
{"smiles": "Cc1c(COc2cc(OCc3cncc(C#N)c3)c(CO)cc2Cl)cccc1-c1cccc(COc2cc(OCc3cncc(C#N)c3)c(CN3CCCC(C(=O)O)C3)cc2Cl)c1C", "note": "(stereo not drawn) [Example 50110]", "values": [{"measurement": "IC50", "setting": "IC50 range class", "value": "0.04 to 20", "unit": "nM"}]}
{"smiles": "Cc1c(COc2cc(OCc3cncc(C#N)c3)c(CO)cc2Cl)cccc1-c1cccc(COc2cc(OCc3cncc(C#N)c3)c(CNC(CO)(Cc3ccccc3)C(=O)O)cc2Cl)c1C", "note": "(stereo not drawn) [Example 50060]", "values": [{"measurement": "IC50", "setting": "IC50 range class", "value": "0.04 to 20", "unit": "nM"}]}
{"smiles": "N#Cc1cncc(COc2cc(OCc3cccc(-c4cccc(COc5cc(O)c(CNC(CCO)C(=O)O)cc5Cl)c4Cl)c3Cl)c(Cl)cc2CNC(CCO)C(=O)O)c1", "note": "(stereo not drawn) [Example 41180]", "values": [{"measurement": "IC50", "setting": "IC50 range class", "value": "0.04 to 20", "unit": "nM"}]}
{"smiles": "Cc1c(OCCCN2CCC(O)(C(=O)O)CC2)cccc1-c1cccc(OCCCN2CCC(O)(C(=O)O)CC2)c1Cl", "note": "[Example 1002, 1,1′-(((2-chloro-2′-methyl-[1,1′-biphenyl]-3,3′-diyl)bis(oxy))bis(propane-3,1-diyl))bis(4-hydroxypiperidine-4-carboxylic acid)]", "values": [{"measurement": "IC50", "setting": "IC50 range class", "value": "0.04 to 20", "unit": "nM"}]}
{"smiles": "Cc1c(COc2cc(OCc3ccc(-n4cccn4)nc3)c(CN(C)[C@@](C)(CO)C(=O)O)cc2Cl)cccc1-c1cccc(COc2cc(OCc3ccc(-n4cccn4)nc3)c(CN(C)[C@@](C)(CO)C(=O)O)cc2Cl)c1C", "note": "[Example 5027, (2S,2′S)-2,2′-((((((2,2′-dimethyl-[1,1′-biphenyl]-3,3′-diyl)bis(methylene))bis(oxy))bis(2-((6-(1H-pyrazol-1-yl)pyridin-3-yl)methoxy)-5-chloro-4,1-phenylene))bis(methylene))bis(methylazanediyl))bis(3-hydroxy-2-methylpropanoic acid)]", "values": [{"measurement": "IC50", "setting": "IC50 range class", "value": "0.04 to 20", "unit": "nM"}]}
{"smiles": "Cc1cc(OCc2cccc(-c3cccc(COc4cc(OCc5cncc(C#N)c5)c(CN(C)[C@@H](CCO)C(=O)O)cc4Cl)c3C)c2C)c(Cl)cc1CN(C)[C@@H](CCO)C(=O)O", "note": "[Example 5505, N-(4-((3′-((4-((((S)-1-carboxy-3-hydroxypropyl)(methyl)amino)methyl)-2-chloro-5-((5-cyanopyridin-3-yl)methoxy)phenoxy)methyl)-2,2′-dimethyl-[1,1′-biphenyl]-3-yl)methoxy)-5-chloro-2-methylbenzyl)-N-methyl-L-homoserine]", "values": [{"measurement": "IC50", "setting": "IC50 range class", "value": "0.04 to 20", "unit": "nM"}]}
{"smiles": "Cc1c(COc2cc(OCc3cncc(C#N)c3)c(CN3CCC[C@H](C(=O)O)C3)cc2Cl)cccc1-c1cccc(COc2cc(OCc3cncc(C#N)c3)c(CN3CCC[C@H](C(=O)O)C3)cc2Cl)c1C", "note": "[Example 40490]", "values": [{"measurement": "IC50", "setting": "IC50 range class", "value": "0.04 to 20", "unit": "nM"}]}
{"smiles": "COc1cc2c(cc1OC)CN(CCCOc1cccc(-c3cccc(OCCCN4CC[C@@H](O)C4)c3C)c1C)CC2", "note": "[Example 2004, (R)-1-(3-((3′-(3-(6,7-dimethoxy-3,4-dihydroisoquinolin-2(1H)-yl)propoxy)-2,2′-dimethyl-[1,1′-biphenyl]-3-yl)oxy)propyl)pyrrolidin-3-ol]", "values": [{"measurement": "IC50", "setting": "IC50 range class", "value": "20.1 to 90", "unit": "nM"}]}
{"smiles": "Cc1c(COc2cc(OCc3cncc(C#N)c3)c(CNC(CCO)C(=O)O)cc2Cl)cccc1-c1cccc(COc2cc(OCc3cncc(C#N)c3)c(CN(CC3CCCO3)C(CCO)C(=O)O)cc2Cl)c1C", "note": "(stereo not drawn) [Example 41030]", "values": [{"measurement": "IC50", "setting": "IC50 range class", "value": "0.04 to 20", "unit": "nM"}]}
{"smiles": "Cc1c(OCCCN2CC[C@@H](O)C2)cccc1-c1cccc(OCCCN2CCCCC2CO)c1C", "note": "(mixture of isomers) [Example 2025, (3R)-1-(3-((3′-(3-(2-(hydroxymethyl)piperidin-1-yl)propoxy)-2,2′-dimethyl-[1,1′-biphenyl]-3-yl)oxy)propyl)pyrrolidin-3-ol]", "values": [{"measurement": "IC50", "setting": "IC50 range class", "value": "20.1 to 90", "unit": "nM"}]}
{"smiles": "Cc1c(COc2cc(OCc3cncc(C#N)c3)c(CNC(C)(CO)CO)cc2Cl)cccc1-c1cccc(COc2cc(OCc3cncc(C#N)c3)c(CNC(C)(CO)CO)cc2Cl)c1C", "note": "[Example 40250]", "values": [{"measurement": "IC50", "setting": "IC50 range class", "value": "0.04 to 20", "unit": "nM"}]}
{"smiles": "Cc1c(OCCCNC[C@H](O)CO)cccc1-c1cccc(OCCCNC[C@H](O)CO)c1C", "note": "[Example 2079, (2S,2′S)-3,3′-((((2,2′-dimethyl-[1,1′-biphenyl]-3,3′-diyl)bis(oxy))bis(propane-3,1-diyl))bis(azanediyl))bis(propane-1,2-diol)]", "values": [{"measurement": "IC50", "setting": "IC50 range class", "value": "0.04 to 20", "unit": "nM"}]}
{"smiles": "Cc1c(COc2cc(OCc3ccc(-n4cccn4)nc3)c(CNC(C)(CO)CO)cc2Cl)cccc1-c1cccc(COc2cc(OCc3ccc(-n4cccn4)nc3)c(CNC(C)(CO)CO)cc2Cl)c1C", "note": "[Example 5020, 2,2′-((((((2,2′-dimethyl-[1,1′-biphenyl]-3,3′-diyl)bis(methylene))bis(oxy))bis(2-((6-(1H-pyrazol-1-yl)pyridin-3-yl)methoxy)-5-chloro-4,1-phenylene))bis(methylene))bis(azanediyl))bis(2-methylpropane-1,3-diol)]", "values": [{"measurement": "IC50", "setting": "IC50 range class", "value": "0.04 to 20", "unit": "nM"}]}
{"smiles": "CC(=O)N1CCN(CCCOc2cccc(-c3cccc(OCCCN4CC[C@@H](O)C4)c3C)c2C)CC1", "note": "[Example 2001, (R)-1-(4-(3-((3′-(3-(3-hydroxypyrrolidin-1-yl)propoxy)-2,2′-dimethyl-[1,1′-biphenyl]-3-yl)oxy)propyl)piperazin-1-yl)ethan-1-one]", "values": [{"measurement": "IC50", "setting": "IC50 range class", "value": "20.1 to 90", "unit": "nM"}]}
{"smiles": "Cc1c(COc2cc(OCc3cncc(C#N)c3)c(CN3CCC[C@H]3C(=O)O)cc2Cl)cccc1-c1cccc(COc2cc(OCc3cncc(C#N)c3)c(CN3CCC[C@H]3C(=O)O)cc2Cl)c1C", "note": "[Example 40350]", "values": [{"measurement": "IC50", "setting": "IC50 range class", "value": "0.04 to 20", "unit": "nM"}]}
{"smiles": "Cc1c(OCCCN2CC[C@@H](O)C2)cccc1-c1cccc(C(=O)NCCCCN2CC[C@@H](O)C2)c1C", "note": "[Example 3008, N-(4-((R)-3-hydroxypyrrolidin-1-yl)butyl)-3′-(3-((R)-3-hydroxypyrrolidin-1-yl)propoxy)-2,2′-dimethyl-[1,1′-biphenyl]-3-carboxamide]", "values": [{"measurement": "IC50", "setting": "IC50 range class", "value": "1000 to 10000", "unit": "nM"}]}
{"smiles": "Cc1c(OCCCN(C)CCCN(C)CCCOc2cccc(-c3cccc(OCCCN4CC[C@@H](O)C4)c3C)c2C)cccc1-c1cccc(OCCCN2CC[C@@H](O)C2)c1C", "note": "[Example 2093, (3R,3′R)-1,1′-((((((propane-1,3-diylbis(methylazanediyl))bis(propane-3,1-diyl))bis(oxy))bis(2,2′-dimethyl-[1,1′-biphenyl]-3′,3-diyl))bis(oxy))bis(propane-3,1-diyl))bis(pyrrolidin-3-ol)]", "values": [{"measurement": "IC50", "setting": "IC50 range class", "value": "20.1 to 90", "unit": "nM"}]}
{"smiles": "C[C@](CO)(NCc1cc(Cl)c(OCc2cccc(-c3cccc(COc4cc(OCc5cncc(C#N)c5)c(CN[C@](C)(CO)C(=O)O)cc4Cl)c3Cl)c2Cl)cc1OCc1cncc(C#N)c1)C(=O)O", "note": "[Example 41190]", "values": [{"measurement": "IC50", "setting": "IC50 range class", "value": "0.04 to 20", "unit": "nM"}]}
{"smiles": "Cc1c(OCCCNCCc2ccncc2)cccc1-c1cccc(OCCCNCCc2ccncc2)c1C", "note": "[Example 2028, 3,3′-((2,2′-dimethyl-[1,1′-biphenyl]-3,3′-diyl)bis(oxy))bis(N-(2-(pyridin-4-yl)ethyl)propan-1-amine)]", "values": [{"measurement": "IC50", "setting": "IC50 range class", "value": "0.04 to 20", "unit": "nM"}]}
{"smiles": "Cc1c(COc2cc(OCc3cncc(C#N)c3)c(CN3C(=O)OCC3CO)cc2Cl)cccc1-c1cccc(COc2cc(OCc3cncc(C#N)c3)c(CN3C(=O)OCC3CO)cc2Cl)c1C", "note": "(stereo not drawn) [Example 2133, 5,5′-((((((2,2′-dimethyl-[1,1′-biphenyl]-3,3′-diyl)bis(methylene))bis(oxy))bis(4-chloro-6-((4-(hydroxymethyl)-2-oxooxazolidin-3-yl)methyl)-3,1-phenylene))bis(oxy))bis(methylene))dinicotinonitrile]", "values": [{"measurement": "IC50", "setting": "IC50 range class", "value": "90.1 to 1000", "unit": "nM"}]}
{"smiles": "CC(CO)(NCc1cc(Cl)c(OCc2cccc(-c3cccc(COc4cc(OCc5cncc(C#N)c5)c(CNC(C)(CO)C(=O)O)cc4Cl)c3Cl)c2Cl)cc1OCc1cncc(C#N)c1)C(=O)O", "note": "(stereo not drawn) [Example 41200]", "values": [{"measurement": "IC50", "setting": "IC50 range class", "value": "0.04 to 20", "unit": "nM"}]}
{"smiles": "Cc1c(COc2cc(OCc3cncc(C#N)c3)c(CN(C)C(CCO)C(=O)O)cc2Cl)cccc1-c1cccc(COc2cc(OCc3cncc(C#N)c3)c(CN(C)C(CCO)C(=O)O)cc2Cl)c1C", "note": "(stereo not drawn) [Example 40810]", "values": [{"measurement": "IC50", "setting": "IC50 range class", "value": "20.1 to 90", "unit": "nM"}]}
{"smiles": "Cc1c(COc2cc(OCc3cncc(C#N)c3)c(CN(CCC(C)C)C(CCO)C(=O)O)cc2Cl)cccc1-c1cccc(COc2cc(OCc3cncc(C#N)c3)c(CN(CCC(C)C)C(CCO)C(=O)O)cc2Cl)c1C", "note": "(stereo not drawn) [Example 41010]", "values": [{"measurement": "IC50", "setting": "IC50 range class", "value": "0.04 to 20", "unit": "nM"}]}
{"smiles": "N#Cc1cncc(COc2cc(OCc3cccc(-c4cccc(COc5cc(OCc6cncc(C#N)c6)c(C(=O)NCCCO)cc5Cl)c4Cl)c3Cl)c(Cl)cc2C(=O)NCCCO)c1", "note": "[Example 80020]", "values": [{"measurement": "IC50", "setting": "IC50 range class", "value": "90.1 to 1000", "unit": "nM"}]}
{"smiles": "Cc1c(COc2cc(OCc3cncc(C#N)c3)c(C(=O)N3CCC(=O)CC3)cc2Cl)cccc1-c1cccc(COc2cc(OCc3cncc(C#N)c3)c(C(=O)N3CCC(=O)CC3)cc2Cl)c1C", "note": "[Example 80230]", "values": [{"measurement": "IC50", "setting": "IC50 range class", "value": "20.1 to 90", "unit": "nM"}]}
{"smiles": "COC(=O)CC(CC(C)C)NCc1cc(Cl)c(OCc2cccc(-c3cccc(COc4cc(OCc5cncc(C#N)c5)c(CNC(CC(=O)OC)CC(C)C)cc4Cl)c3C)c2C)cc1OCc1cncc(C#N)c1", "note": "(stereo not drawn) [Example 40550]", "values": [{"measurement": "IC50", "setting": "numeric IC50", "value": 9220, "unit": "nM"}]}
{"smiles": "Cc1c(OCCCNCCCO)cccc1-c1cccc(OCCCN2CC[C@@H](O)C2)c1C", "note": "[Example 2042, (R)-1-(3-((3′-(3-((3-hydroxypropyl)amino)propoxy)-2,2′-dimethyl-[1,1′-biphenyl]-3-yl)oxy)propyl)pyrrolidin-3-ol]", "values": [{"measurement": "IC50", "setting": "IC50 range class", "value": "20.1 to 90", "unit": "nM"}]}
{"smiles": "Cc1cc(OCc2cccc(-c3cccc(COc4cc(C)c(CNC(C)(CO)CO)cc4C)c3C)c2C)c(C)cc1CNC(C)(CO)CO", "note": "[Example 5001, 2,2′-((((((2,2′-dimethyl-[1,1′-biphenyl]-3,3′-diyl)bis(methylene))bis(oxy))bis(2,5-dimethyl-4,1-phenylene))bis(methylene))bis(azanediyl))bis(2-methylpropane-1,3-diol)]", "values": [{"measurement": "IC50", "setting": "IC50 range class", "value": "0.04 to 20", "unit": "nM"}]}
{"smiles": "Cc1c(COc2cc(OCc3cncc(C#N)c3)c(CNC(Cc3ccccc3)C(N)=O)cc2Cl)cccc1-c1cccc(COc2cc(OCc3cncc(C#N)c3)c(CNC(Cc3ccccc3)C(N)=O)cc2Cl)c1C", "note": "(stereo not drawn) [Example 40590]", "values": [{"measurement": "IC50", "setting": "IC50 range class", "value": "90.1 to 1000", "unit": "nM"}]}
{"smiles": "Cc1c(OCCCNCC(O)CO)cccc1-c1cccc(OCCCN2CC[C@@H](O)C2)c1C", "note": "(mixture of isomers) [Example 2059, 3-((3-((3′-(3-((R)-3-hydroxypyrrolidin-1-yl)propoxy)-2,2′-dimethyl-[1,1′-biphenyl]-3-yl)oxy)propyl)amino)propane-1,2-diol]", "values": [{"measurement": "IC50", "setting": "IC50 range class", "value": "0.04 to 20", "unit": "nM"}]}
